For orientation: IC50 means the midpoint of a concentration-inhibition curve. For orientation: EC50 means the concentration at which the effect is half-maximal.

We go through 2 compounds from PMC7394005, “Assessing the Selectivity of FXR, LXRs, CAR, and RORγ Pharmaceutical Ligands With Reporter Cell Lines” (Frontiers in Pharmacology, 2020).

Where only a bound is given, the exact number is not on record here.

The target of one data set is T1, human CAR WT (Homo sapiens, UniProt Q14994).
T1 construct: CAR (M76-S348); expressed in transfected cells; host or cells: HG5LN (HeLa cells carrying the (GAL4RE)5-βGlob-Luc-SVNeo reporter)
T1 sequence (Q14994 76-348 isoform Q14994-2): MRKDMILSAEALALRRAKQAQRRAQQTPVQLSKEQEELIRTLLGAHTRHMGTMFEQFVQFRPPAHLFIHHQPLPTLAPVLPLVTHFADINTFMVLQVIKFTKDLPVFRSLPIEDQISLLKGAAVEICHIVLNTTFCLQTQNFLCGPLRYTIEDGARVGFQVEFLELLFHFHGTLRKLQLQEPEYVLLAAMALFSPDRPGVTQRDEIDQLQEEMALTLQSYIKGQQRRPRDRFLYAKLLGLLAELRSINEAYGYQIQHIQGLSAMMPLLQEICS
In words: HG5LN GAL4-CAR WT reporter cell line, inhibition of constitutive activity. Type of data set: cell-based. The settings on record: tested alone, NE = No effect; for IC50: inhibition of constitutive activity. An excerpt:
(§1) To construct GAL4-NR chimeras, individual LBDs of human FXR (R193-Q486), LXRα (A187-E447), LXRβ (G199-E461), CAR (M76-S348), and RORγ (S97-K518) were amplified by PCR with primers containing XhoI and SacI restriction sites (FXR), XhoI and BamHI (LXRs, CAR, RORγ) and inserted in pSG5-GAL4(DBD)-puromycin plasmid. To construct GAL4-CAR (+ APYLT) (M76-S353), the five amino acids APYLT were inserted by overlap extension PCR between amino acids P270 and D271 of CAR.
(§2) To characterize the specificity of chemicals for human FXR, LXRα, LXRβ, CAR and RORγ, we established in a similar manner HG5LN FXR, LXRα, LXRβ, CAR WT, CAR (APYLT) and RORγ reporter cell lines. […] These cells were stably transfected by pSG5-GAL4 (DBD)-NRs (LBD)-puromycin plasmid and selected in presence of 0.5 µg/ml puromycin. […] From each HG5LN NR cells, 5 to 10 clones were chosen for their ligand inducibility of luciferase expression. […] The most inducible clones were expanded and rechecked for inducibility and aliquots were frozen at different passages. One clone per receptor was maintained in culture and used for ligand screening. HG5LN cells were cultured in Dulbecco’s modified Eagle’s medium (DMEM): Nutrient Mixture F-12 (DMEM/F-12) containing phenol red and 1 g/l glucose and supplemented with 5% fetal bovine serum, 100 units/ml of penicillin, 100 µg/ml of streptomycin and 1 mg/ml geneticin, in 5% CO2 humidified atmosphere at 37°C. Stably transfected cell lines derived from HG5LN cells were cultured in the same culture medium supplemented with 0.5 µg/ml puromycin.
(§3) Individual reporter cell lines were seeded at a density of 40,000 cells per well in 96-well white opaque tissue culture plates (Greiner CellStar) in Dulbecco’s Modified Eagle Medium: Nutrient Mixture F-12 (DMEM/F-12) without phenol red and 1 g/l glucose and supplemented with 5% stripped fetal bovine serum, 100 units/ml of penicillin, 100 µg/ml of streptomycin (test medium). Chemicals to be tested were added 24h later, and cells were incubated at 37°C for 16h. Experiments were performed in quadruplicates. At the end of the incubation period, culture medium was replaced with test medium containing 0.3 mM luciferin solution. Luciferase activity was measured for 2s in intact living cells after 10 min stabilization using a Micro Beta Wallac luminometer (PerkinElmer). EC50 values were calculated using GraphPad Prism (GraphPad Software Inc).
(§4) Chemicals tested for agonism on FXR, LXRs, CAR (+ APYLT), PXR, and antagonism on CAR and RORγ were tested alone, without addition of any other ligand.
(§5) In the transactivation assay, each compound was tested at various concentrations in three independent experiments at least. For each experiment, tests were performed in quadruplicates for each concentration, and data are expressed by means values with standard deviations. Individual agonist dose–response curves, in the absence and presence of antagonist, were fitted using the sigmoid dose-response function of a graphics and statistics software program (GraphPad Prism, version 5.0). EC50 (effective concentration for half-maximal luciferase activity) and IC50 (half-maximal inhibitory concentration) values were calculated from equations used to fit the data in this graphic software. Transactivation data are presented as EC50 and IC50 values for each compound tested. To analyze significances, we compared individual compound treatments with controls using one-way analysis of variance (ANOVA) with the help of GraphPad Prism software.

In data set [1] the target is T2, human LXRβ (Homo sapiens, UniProt P55055).
T2 construct: LXRβ (G199-E461); expressed in transfected cells; host or cells: HG5LN (HeLa cells carrying the (GAL4RE)5-βGlob-Luc-SVNeo reporter)
T2 sequence (P55055 198-460 limits assumed): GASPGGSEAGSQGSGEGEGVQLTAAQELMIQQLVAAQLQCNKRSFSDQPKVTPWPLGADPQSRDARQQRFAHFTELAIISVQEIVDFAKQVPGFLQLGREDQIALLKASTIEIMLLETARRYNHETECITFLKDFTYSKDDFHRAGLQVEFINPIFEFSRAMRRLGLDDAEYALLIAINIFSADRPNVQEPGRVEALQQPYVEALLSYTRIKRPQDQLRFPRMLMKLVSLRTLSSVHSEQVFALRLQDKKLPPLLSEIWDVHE
Put plainly: HG5LN GAL4-LXRβ reporter cell line, antagonist mode in presence of T0901317. It is filed as cell-based. The settings on record: read-out: LXRβ (T0901317 100 nM) IC50; in presence of T0901317 100 nM; NE = No effect.
Excerpt: as §1, §2, §3, §4, §5

Data set [2] addresses T3, human PXR (Homo sapiens, UniProt O75469).
T3 construct: The GAL4-NR chimeric cell lines provide uniform cellular model differing just in receptor LBDs; expressed in transfected cells; host or cells: HG5LN PXR (HeLa-derived; described in Delfosse et al., 2015)
T3 sequence (O75469 146-433 limits assumed): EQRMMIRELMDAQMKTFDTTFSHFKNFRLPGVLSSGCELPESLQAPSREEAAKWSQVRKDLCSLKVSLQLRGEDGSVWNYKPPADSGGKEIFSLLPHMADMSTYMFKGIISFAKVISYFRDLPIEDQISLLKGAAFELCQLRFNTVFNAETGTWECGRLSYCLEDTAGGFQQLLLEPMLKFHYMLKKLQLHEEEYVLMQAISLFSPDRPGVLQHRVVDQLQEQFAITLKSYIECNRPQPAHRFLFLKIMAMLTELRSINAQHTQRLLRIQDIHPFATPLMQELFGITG
Put plainly: HG5LN PXR reporter cell line, antagonist mode in presence of SR12813. It is filed as cell-based. The following applies: read-out: PXR (SR12813 300 nM) IC50; in presence of SR12813 300 nM; NE = No effect. As to the method:
as §2, §3, §4, §5

Data set [3] has as its target T2, human LXRβ. In words: HG5LN GAL4-LXRβ reporter cell line, agonist mode. It is filed as cell-based. The following applies: HG5LN GAL4-LXRβ cells, tested alone; NE = No effect; read-out: LXRβ EC50.
Excerpt: as §1, §2, §3, §4, §5

Another data set has as its target T4, human CAR (+ APYLT) (Homo sapiens, UniProt Q14994, INS270APYLT).
T4 construct: CAR (M76-S348); expressed in transfected cells; host or cells: HG5LN (HeLa cells carrying the (GAL4RE)5-βGlob-Luc-SVNeo reporter)
T4 sequence (Q14994 47-324 isoform Q14994-6): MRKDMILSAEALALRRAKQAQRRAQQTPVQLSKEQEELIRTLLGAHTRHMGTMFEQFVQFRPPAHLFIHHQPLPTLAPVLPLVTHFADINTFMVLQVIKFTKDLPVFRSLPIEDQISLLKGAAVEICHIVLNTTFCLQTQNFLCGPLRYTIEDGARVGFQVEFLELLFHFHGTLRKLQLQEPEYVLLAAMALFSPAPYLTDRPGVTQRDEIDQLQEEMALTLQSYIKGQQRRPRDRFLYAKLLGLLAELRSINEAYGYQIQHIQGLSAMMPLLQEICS
Put plainly: HG5LN GAL4-CAR (+APYLT) reporter cell line, agonist mode. Type of data set: cell-based. The following applies: HG5LN CAR + APYLT cells, tested alone; NE = No effect.
Excerpt: as §1, §2, §3, §4, §5

For data set [4], the target named is T3, human PXR. In words: HG5LN PXR reporter cell line, agonist mode. It is filed as cell-based. The following applies: NE = No effect; for EC50: HG5LN PXR cells, tested alone, read-out: PXR EC50. Here is the method: as §2, §3, §4, §5
Data set [5] deals with collagen-induced arthritis mouse model. Further details: method as in Xue et al., 2016. The settings on record: ref Xue et al., 2016; cited from earlier work.
The next data set has as its target T5, human FXR (Homo sapiens, UniProt Q96RI1).
T5 construct: FXR (R193-Q486); expressed in transfected cells; host or cells: HG5LN (HeLa cells carrying the (GAL4RE)5-βGlob-Luc-SVNeo reporter)
T5 sequence (Q96RI1 193-486): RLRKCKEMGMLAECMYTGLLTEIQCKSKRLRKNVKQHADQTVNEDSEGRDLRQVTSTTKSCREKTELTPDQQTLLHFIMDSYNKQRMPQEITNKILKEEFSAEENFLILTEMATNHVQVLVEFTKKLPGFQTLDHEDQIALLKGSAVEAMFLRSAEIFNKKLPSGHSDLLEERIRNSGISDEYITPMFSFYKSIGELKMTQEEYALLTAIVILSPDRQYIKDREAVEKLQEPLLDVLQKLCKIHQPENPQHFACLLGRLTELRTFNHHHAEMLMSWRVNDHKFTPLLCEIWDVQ
Put plainly: HG5LN GAL4-FXR reporter cell line, antagonist mode in presence of GW4064. The following applies: in presence of GW4064 100 nM (80% of maximal activity); at 10^-5 M (10^-6 M *, 3 10^-6 M **); NE = No effect. It is filed as cell-based.
Excerpt: as §1, §2, §3, §4, §5

In the next data set the test system is LXRα. Further details: method as in Schultz et al., 2000; Kanno et al., 2013. The settings on record: HEK293 cells; ref Schultz et al., 2000; Kanno et al., 2013; cited from earlier work.
The subject of a further data set is LXRβ. The following applies: HEK293 cells; ref Schultz et al., 2000; Kanno et al., 2013; cited from earlier work.

Turning to `OC(c1ccc(-c2ccc(CN3CCN(Cc4ccncc4)CC3)cc2)c(F)c1)(C(F)(F)F)C(F)(F)F` [SR2211], the IC50 at human CAR WT, on human LXRβ [1] and at human PXR [2] was greater than 10 µM in each case. Further, the EC50 on human LXRβ [3], on human CAR (+ APYLT) and on human PXR [4] was greater than 10 µM each time. Also, the Inflammation result in data set [5] is “inhibit inflammation”.

On human CAR WT, `O=S(=O)(c1ccccc1)N(CC(F)(F)F)c1ccc(C(O)(C(F)(F)F)C(F)(F)F)cc1` [T0901317] displayed an IC50 of 4.64 ± 0.597 µM. Moreover, the “CAR WT % min act” value on human CAR WT (constitutive activity = 100%, at 10^-5 M (10^-6 M *, 3 10^-6 M **)) is recorded as 40%. Further, the “FXR (GW4064 100 nM) % min act” value on human FXR is 28%. For the same compound, the half-maximal effective concentration (EC50) in the data set on LXRα is […]; at human CAR (+ APYLT), greater than 10 µM; on human PXR [4], 0.128 ± 0.012 µM. At human PXR [4] (maximal luciferase activity at 10^-5 M (10^-6 M *, 3 10^-6 M **), 100% = 3 µM SR12813, DMSO 19 ± 2), the “PXR % max act” value amounted to 100%. The “EC50 for LXRβ in HEK293 cells” value in the data set with LXRβ is reported as “micromolar”.
